Assay results as given in PubChem BioAssay (NCI).
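Method: 48-hour compound exposure of cells in 96-well plates, five concentrations, linear interpolation of endpoints. Abbreviation: GI50, concentration required for 50% inhibition of growth. TGI denotes the concentration required for complete inhibition of growth.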

How the values were obtained:
Experiment in all cases: NCI-60 cell line screen, 48 h
ACHN renal = tested on: ACHN renal
DU-145 prostate = tested on: DU-145 prostate
HCC-2998 colon = tested on: HCC-2998 colon
HCT-116 colon = tested on: HCT-116 colon
HCT-15 colon = tested on: HCT-15 colon
HOP-62 NSCLC = tested on: HOP-62 NSCLC
SF-539 CNS = tested on: SF-539 CNS
T-47D breast = tested on: T-47D breast
UACC-62 melanoma = tested on: UACC-62 melanoma

Structure (SMILES) | TGI (ACHN renal) | TGI (DU-145 prostate) | TGI (HCC-2998 colon) | TGI (HCT-116 colon) | TGI (HCT-15 colon) | TGI (HOP-62 NSCLC) | TGI (SF-539 CNS) | TGI (T-47D breast) | TGI (UACC-62 melanoma) | GI50 (ACHN renal) | GI50 (DU-145 prostate) | GI50 (HCC-2998 colon) | GI50 (HCT-15 colon) | GI50 (HOP-62 NSCLC) | GI50 (SF-539 CNS) | GI50 (T-47D breast) | GI50 (UACC-62 melanoma)
COc1cc(/C=C/C(=O)CC(=O)/C=C/c2cc(C)c(O)c(OC)c2)cc(C)c1O | > 100 µM | > 100 µM | > 100 µM | > 100 µM | > 100 µM | > 100 µM | > 100 µM | > 100 µM | > 100 µM | – | – | – | – | – | – | – | –
O=C(CC(C(=O)c1ccsc1)c1cccs1)c1ccccc1 (configuration not stated) | > 100 µM | > 100 µM | > 100 µM | > 100 µM | > 100 µM | > 100 µM | > 100 µM | 33.7 µM | > 100 µM | – | – | – | – | – | – | – | –
COc1c(C(=O)/C(=N/Nc2ccc(C(=O)O)cc2)C(C)=O)c(O)cc2occc12 | > 100 µM | > 100 µM | > 100 µM | > 100 µM | > 100 µM | > 100 µM | > 100 µM | > 100 µM | > 100 µM | – | – | – | – | – | – | – | –
CC(C#N)(NO)C(C)(C#N)NO (configuration not stated) | – | > 100 µM | > 100 µM | > 100 µM | > 100 µM | – | > 100 µM | > 100 µM | > 100 µM | – | – | – | – | – | – | – | –
CS(=O)(=O)OCCN(CCOS(C)(=O)=O)c1ccc(C=Nc2ccc(-c3csc(Cc4ccccc4)n3)cc2)c(Cl)c1 | > 84 µM | > 86.5 µM | 35.1 µM | 57.1 µM | > 87.8 µM | > 55.5 µM | > 59.6 µM | > 84.2 µM | > 47.7 µM | – | – | – | – | – | – | – | –
O=C(Nc1ccccc1C(=O)NCc1ccccc1)/C(=C/c1ccccc1O)NC(=O)c1ccccc1 | > 100 µM | > 100 µM | > 100 µM | > 100 µM | > 100 µM | > 100 µM | > 100 µM | > 100 µM | > 100 µM | – | – | – | – | – | – | – | –
CCO/N=C\c1ccc2oc(-c3ccccc3)cc(=O)c2c1 | 37.2 µM | 13.3 µM | 6.08 µM | 8.23 µM | 12.4 µM | 28.7 µM | 2.86 µM | 63.6 µM | 33.9 µM | – | – | – | – | – | – | – | –
COc1ccc(C2=C(OC(C)=O)c3cccn3-c3ccc(Cl)cc3S2)cc1 | – | > 10 µM | > 10 µM | – | > 10 µM | > 10 µM | – | > 10 µM | > 10 µM | – | – | – | – | – | – | – | –
O=[N+]([O-])c1ccc2c(c1)nc1n2C(c2c(F)cccc2F)SC1 (configuration not stated) | > 100 µM | > 100 µM | > 100 µM | > 100 µM | > 100 µM | > 100 µM | > 100 µM | > 100 µM | > 100 µM | – | – | – | – | – | – | – | –
CN(C)N1C(=O)C(=O)N(c2cccc3ccccc23)C1=O | > 10 µM | > 10 µM | > 10 µM | > 10 µM | > 10 µM | > 10 µM | > 10 µM | > 10 µM | > 10 µM | – | – | – | – | – | – | – | –
CC1=C(C)C(=O)OC(C(C)(O)C2(O)CC3OC34C3CC(O)C56OC5C=CC(=O)C6(C)C3CCC42C)C1 (configuration not stated) | 2.45 µM | 15.8 µM | 2.73 µM | – | 3.85 µM | 35.4 µM | 6.39 µM | > 43.3 µM | 3.15 µM | – | – | – | – | – | – | – | –
O=C1c2c(c3c4cc(F)ccc4oc3c3[nH]c4ccccc4c23)C(=O)N1O | 1.73 µM | > 100 µM | > 100 µM | – | > 100 µM | 17.3 µM | 9.09 µM | > 100 µM | 3.41 µM | 0.398 µM | 2.15 µM | 2.53 µM | 1.81 µM | 1.33 µM | 1.6 µM | 1.59 µM | 1.48 µM
CN1C/C(=C\c2cccs2)C2=NN(c3ccccc3)C(c3cccs3)C2C1 (configuration not stated) | > 100 µM | > 58.2 µM | > 100 µM | > 35.7 µM | > 100 µM | > 100 µM | > 100 µM | 96.3 µM | > 100 µM | – | – | – | – | – | – | – | –
COc1ccc2c(c1)/C(=C\c1c(Cl)nc3n1CCS3)C(=O)N2 | > 100 µM | 72.5 µM | 8.31 µM | 25.5 µM | 62.1 µM | > 100 µM | 24.9 µM | 32.7 µM | 16.3 µM | – | – | – | – | – | – | – | –
CCOC(=O)NC(Nc1ccc(F)cc1F)(C(F)(F)F)C(F)(F)F | > 100 µM | > 100 µM | > 100 µM | > 100 µM | > 100 µM | > 100 µM | > 100 µM | > 100 µM | > 100 µM | – | – | – | – | – | – | – | –
COC(=O)C1(Cc2ccc3c(c2)CCC3)Cc2ccc3c(c2C1=O)CCC3 (configuration not stated) | > 100 µM | > 100 µM | 44.5 µM | > 100 µM | > 40.5 µM | > 100 µM | 34.8 µM | > 68.6 µM | > 48.5 µM | – | – | – | – | – | – | – | –
CCC1c2[nH]c3ccccc3c2C[C@H]2C(=O)NC(C)C(=O)N12 (some centres not stated) | > 100 µM | > 100 µM | > 100 µM | > 100 µM | > 100 µM | > 100 µM | – | > 100 µM | > 100 µM | – | – | – | – | – | – | – | –
O=C(CCCc1cccc2[nH]c3c(c12)CN(Cc1ccccc1)CC3)c1ccc(F)cc1 | > 100 µM | > 100 µM | 38.5 µM | > 100 µM | > 100 µM | > 52.6 µM | > 100 µM | > 58.7 µM | > 100 µM | – | – | – | – | – | – | – | –
COc1ccc(SCc2cc(OC)ccc2OC)cc1 | > 100 µM | > 100 µM | 37 µM | > 100 µM | > 66.3 µM | > 100 µM | > 100 µM | > 100 µM | > 100 µM | – | – | – | – | – | – | – | –
Nc1cc(C2CCCc3c2[nH]c2ccccc32)ccc1O (configuration not stated) | > 100 µM | > 100 µM | > 100 µM | > 100 µM | > 100 µM | > 100 µM | > 100 µM | > 100 µM | > 100 µM | – | – | – | – | – | – | – | –
COc1cc(/C=C2\C(=O)N(c3cccc(NC(C)=O)c3)C(c3ccccc3)S2(=O)=O)cc(OC)c1OC (configuration not stated) | > 100 µM | > 100 µM | > 100 µM | > 100 µM | > 100 µM | > 100 µM | > 100 µM | > 100 µM | > 100 µM | – | – | – | – | – | – | – | –
CC(O)C(CO)NC(=O)C1CSSCC(NC(=O)C(N)Cc2ccccc2)C(=O)NC(Cc2ccccc2)C(=O)NC(Cc2c[nH]c3ccccc23)C(=O)NC(CCCCN)C(=O)NC(C(C)O)C(=O)N1 (configuration not stated) | > 100 µM | > 100 µM | – | > 100 µM | > 100 µM | > 100 µM | > 100 µM | > 100 µM | > 100 µM | – | – | – | – | – | – | – | –
